Data on one compound can be found in patent US20230248705A1, “ADMINISTRATION OF MODULATORS OF 5-HT AND / OR AMPA RECEPTORS FOR TREATING NEUROLOGICAL CONDITIONS” (THE ROYAL INSTITUTION FOR THE ADVANCEMENT OF …, priority 2020, published 2023).

As a reminder, the Ki is a measure of affinity in units of concentration, obtained from inhibition or displacement.

“Also recorded” adds a separate entry of the source.

Data set [1] relates to dopaminergic system. Particulars: doses 30-120 μg/kg, 60-120 μg/kg; leading to psychotic-like hallucinogenic symptoms; cited from earlier work.
The test system of data set [2] is mammalian target of rapamycin complex (mTOR). In words: mTOR phosphorylation in the mPFC. The format is in vivo, mice.
Data set [3] deals with male C57BL/6J mice. Briefly: direct social interaction test (DSI). The format is in vivo. As to the method:
(§1) The increase in social interaction was observed 24 hours after the last injection in two validated paradigms of social behavior: the direct social interaction test (FIG. 1A) and the three-chamber test (FIG. 1B).

Data set [4] deals with 5-HT neurons originating in the Dorsal Raphe Nucleus (DRN). Particulars: doses 5-30 μg/kg; mice; cited from earlier work.
The test system of data set [5] is mice. In words: head-twitches after acute dose. The conditions noted are these: FIG. 3.
Data set [6] deals with mice. Briefly: novelty suppressed feeding test after chronic restraint stress. The class given is in vivo. The conditions noted are these: repeated LSD 30 μg/kg; chronic restraint stress mice vs vehicle-treated stressed mice; FIG. 2B. The method, then:
(§2) A paradigm of repeated stress-induced anxiety-like behavior was employed, in order to mimic anxious states induced by chronic stressor exposure in humans. Chronic restraint stress was chosen for its ability to reliably and relatively quickly induce anxiety-like behavior. Briefly, mice were placed in well ventilated plexiglass restrainers for 2 hours per day, for 15 days, then returned to a horizontal resting position on an open bench. During the procedure, the animals had no access to food and water. Control mice were left undisturbed in their home cage. This regimen duration was chosen given that, in pilot experiments, it represented the minimum duration of restraint stress which exacerbated anxiety-like behavior.
This procedure was used to measure neohypophagia (the anxiety-induced inhibition of feeding upon exposure to a novel environment). This test is used to validate the acute effects of putative anxiolytics. Mice were food-deprived for 48-hours; subsequently, each mouse was placed in a brightly illuminated (100 W, 350 Ix) open arena (40×40 cm, white-painted floor with walls 30 cm high), containing standard chow (3 pellets) in the center of the arena. The latency to initiate feeding (in seconds) was used as an index of anxiety-like behavior. […]

In data set [7] the test system is glutamatergic and serotonergic neurotransmission in the medial prefrontal cortex (mPFC) and in the DRN. Briefly: electrophysiological experiments in mPFC and DRN. The format is in vivo, mice. Particulars: repeated regimen of LSD.
The subject of data set [8] is mice. Briefly: light-dark box test after chronic restraint stress. The format is in vivo. Particulars: repeated LSD 30 μg/kg, FIG. 2A. As to the method: as §2
For the light-dark box test, an apparatus consisting of a light, open topped, opaque, plexiglass box (27×27×30 cm) connected to a dark, closed topped, opaque, plexiglass box (18×27×30 cm) was used. The light and dark boxes were connected by a small opening (12×5 cm) which allowed the mouse to cross between the two compartments. The light box was illuminated by a 100 W desk lamp. Each mouse was placed in the illuminated box and observed for 5 min. When the four paws were in the light box, the mouse was considered to be in the light compartment. […]

In data set [9] the target is dopamine D2 receptor (Homo sapiens, UniProt P14416). The conditions noted are these: read-out: affinity (ki), partial agonist; cited from earlier work.
Data set [10] deals with healthy volunteers. Particulars: cited from earlier work.
The subject of data set [11] is male C57BL/6J mice. In words: three chambers test (TCT). The class given is in vivo. The conditions noted are these: repeated LSD 25-35 μg/kg per day for 7 days; vs veh; FIG. 1B. As to the method:
as §1

dopamine D2 receptor, sequence (P14416 whole entry, species assumed): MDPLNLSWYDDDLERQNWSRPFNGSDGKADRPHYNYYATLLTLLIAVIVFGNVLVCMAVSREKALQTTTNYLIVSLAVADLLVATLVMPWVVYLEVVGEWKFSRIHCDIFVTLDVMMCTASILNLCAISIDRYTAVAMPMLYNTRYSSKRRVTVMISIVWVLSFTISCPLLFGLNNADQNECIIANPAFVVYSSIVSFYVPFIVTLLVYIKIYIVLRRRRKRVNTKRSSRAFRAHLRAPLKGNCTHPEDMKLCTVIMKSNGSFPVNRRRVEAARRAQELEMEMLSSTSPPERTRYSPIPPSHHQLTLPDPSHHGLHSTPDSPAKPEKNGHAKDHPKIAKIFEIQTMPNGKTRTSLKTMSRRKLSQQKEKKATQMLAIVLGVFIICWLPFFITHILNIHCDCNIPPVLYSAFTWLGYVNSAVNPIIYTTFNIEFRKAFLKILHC

On to `CCN(CC)C(=O)[C@@H]1C=C2c3cccc4[nH]cc(c34)C[C@H]2N(C)C1` [LSD, Lysergic acid diethylamide], for which the dopaminergic system activity entry in [1] was “inhibit the dopaminergic system”. In addition, the “phosphorylation levels of mTOR” value in data set [2] is listed as “increased the phosphorylation levels”. Besides, in [3] (lower doses 5, 10 μg/kg for 3 days), the social interaction entry is given as “non-significant increase in social interaction”. Also, the “social interaction / interaction time toward the unfamiliar mouse” value in data set [3] (repeated LSD 25-35 μg/kg per day for 7 days, 24 hours after last injection, vs veh (saline), FIG. 1A) is recorded as “increased social interaction; also recorded: increases interaction time”. In addition, the social behavior entry is “did not produce any effect on social behavior” in [3] (single administration, FIG. 1A) and “increase social behavior” in data set [10] (healthy volunteers). Moreover, the “activity of 5-HT neurons” value in data set [4] is reported as “decreasing the activity of 5-HT neurons”. Also, the “hallucinogenic effects (head-twitches)” value in data set [5] (acute (single) dose 15 μg/kg or less) was “did not provide hallucinogenic effects”. The “adverse events (hallucinations, head twitches)” value in [5] (acute (single) dose 30 μg/kg) and in [5] (acute (single) dose 60 μg/kg) was “produces adverse events” throughout. The “head twitches versus dose” value in data set [5] (as an acute (single) dose is increased) is given as “increase in head twitches”. In addition, the “anxiety-like behavior: latency to feed” value in data set [6] is listed as “prevents chronic stress-induced anxiety-like behavior; also recorded: reduced latency to feed; also recorded: decreased latency to feed”. Further, the “glutamatergic and serotonergic neurotransmission” value in [7] is “potentiates both glutamatergic and serotonergic neurotransmission”. For the same compound, the “anxiety-like behavior: number of transitions between light and dark compartments” value in data set [8] is “prevents chronic stress-induced anxiety-like behavior; also recorded: number of entries similar to the control mice treated with the vehicle; also recorded: normalized the transition between the dark and the light compartment”. In addition, the Ki in [9] is 0.025 µM. Besides, in data set [10] (2 weeks after LSD administration), the “optimism, mood and trait openness” value was “increased optimism, mood and trait openness”. Also, in data set [10] (after 200 μg of LSD), the “mood and social effects” value was “Positive mood changes and altruistic/positive social effects”. Also, the “preference for social novelty / sniffing time toward a novel mouse” value in data set [11] is reported as “promoted the preference for the social novelty; also recorded: promotes preference for social novelty”.
